Measurements as given in patent US12077503B2, “Substituted cyclic amides and their use as herbicides” (FMC CORPORATION, priority 2015, dated 2024).

Key:
Type in all cases: in vivo
[1] = tested on: rice (Oryra sativa); experiment: Test B flooded paddy test; conditions: Flood, 0 to 100 scale where 0 is no effect and 100 is complete control, 13 to 15 d
Outline: (§1)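 Plants at 2-leaf stage flooded to 3 cm above soil, with compounds applied directly to paddy water and that depth maintained. Plants kept in greenhouse 13–15 d. Visual rating versus controls on a 0 (no effect) to 100 (complete control) scale.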

[2] = tested on: ducksalad (Heteranthera limosa); experiment: Test B flooded paddy test; conditions: Flood, 0 to 100 scale where 0 is no effect and 100 is complete control, 13 to 15 d
Outline: as §1

[3] = tested on: sedge, umbrella (small-flower umbrella sedge, Cyperus difformis); experiment: Test B flooded paddy test; conditions: Flood, 0 to 100 scale where 0 is no effect and 100 is complete control, 13 to 15 d
Outline: as §1

[4] = tested on: barnyardgrass (Echinochloa crus-galli); experiment: Test B flooded paddy test; conditions: Flood, 0 to 100 scale where 0 is no effect and 100 is complete control, 13 to 15 d
Outline: as §1

[5] = tested on: giant foxtail (Setaria faberii); experiment: Test A preemergence; conditions: for Plant response rating, Foxtail, Giant: 125 g ai/ha, preemergence, 0 to 100 scale (0 no effect, 100 complete control); for Foxtail, Giant plant response rating (0 to 100 scale): Preemergence, 500 g ai/ha, 0 is no effect, 100 is complete control
Excerpt: (§2) Seeds of plant species selected from barnyardgrass (Echinochloa crus-galli), Kochia (Kochia scoparia), ragweed (common ragweed, Ambrosia elatior), ryegrass, Italian (Italian ryegrass, Lolium multiflorum), crabgrass, large (Digitaria sanguinalis), giant foxtail (Setaria faberii), green foxtail (Setaria viridis), morningglory (Ipomoea spp.), pigweed (Amaranthus retroflexus), velvetleaf (Abutilon theophrasti), wheat (Triticum aestivum), and corn (Zea mays) were planted into a blend of loam soil and sand and treated preemergence with a directed soil spray using test chemicals formulated in anon-phytotoxic solvent mixture which included a surfactant.
(§3) At the same time, plants selected from these crop and weed species and also blackgrass (Alopecurus myosuroides), and Galium (catchweed bedstraw, Galium aparine) were planted in pots containing the same blend of loam soil and sand and treated with postemergence applications of test chemicals formulated in the same manner. Plants ranged in height from 2 to 10 cm and were in the one- to two-leaf stage for the postemergence treatment. Treated plants and untreated controls were maintained in a greenhouse for approximately 10 d, after which time all treated plants were compared to untreated controls and visually evaluated for injury. Plant response ratings, summarized in Table A, are based on a 0 to 100 scale where 0 is no effect and 100 is complete control. A dash (-) response means no test result.

[6] = tested on: pigweed (Amaranthus retroflexus); experiment: Test A preemergence; conditions: for Plant response rating, Pigweed: 125 g ai/ha, preemergence, 0 to 100 scale (0 no effect, 100 complete control); for Pigweed plant response rating (0 to 100 scale): Preemergence, 500 g ai/ha, 0 is no effect, 100 is complete control
Excerpt: as §2, §3

[7] = tested on: Kochia (Kochia scoparia); experiment: Test A preemergence; conditions: for Plant response rating, Kochia: 125 g ai/ha, preemergence, 0 to 100 scale (0 no effect, 100 complete control); for Kochia plant response rating (0 to 100 scale): Preemergence, 500 g ai/ha, 0 is no effect, 100 is complete control
Excerpt: as §2, §3

[8] = tested on: ryegrass, Italian (Italian ryegrass, Lolium multiflorum); experiment: Test A preemergence; conditions: for Plant response rating, Ryegrass, Italian: 125 g ai/ha, preemergence, 0 to 100 scale (0 no effect, 100 complete control); for Ryegrass, Italian plant response rating (0 to 100 scale): Preemergence, 500 g ai/ha, 0 is no effect, 100 is complete control
Excerpt: as §2, §3

[9] = tested on: barnyardgrass (Echinochloa crus-galli); experiment: Test A preemergence; conditions: for Plant response rating, Barnyardgrass: 125 g ai/ha, preemergence, 0 to 100 scale (0 no effect, 100 complete control); for Barnyardgrass plant response rating (0 to 100 scale): Preemergence, 500 g ai/ha, 0 is no effect, 100 is complete control
Excerpt: as §2, §3

[10] = tested on: ragweed (common ragweed, Ambrosia elatior); experiment: Test A preemergence; conditions: for Plant response rating, Ragweed: 125 g ai/ha, preemergence, 0 to 100 scale (0 no effect, 100 complete control)
Excerpt: as §2, §3

[11] = tested on: Galium (catchweed bedstraw, Galium aparine); experiment: Test A postemergence; conditions: postemergence; for Galium plant response rating: 125 g ai/ha, visual injury rating on 0 to 100 scale (0 no effect, 100 complete control), approx. 10 d; for Plant response rating, Galium: 500 g ai/ha, 0 to 100 scale, 0 no effect, 100 complete control
Excerpt: as §2, §3

[12] = tested on: corn (Zea mays); experiment: Test A postemergence; conditions: postemergence; for Corn plant response rating: 125 g ai/ha, visual injury rating on 0 to 100 scale (0 no effect, 100 complete control), approx. 10 d; for Plant response rating, Corn: 500 g ai/ha, 0 to 100 scale, 0 no effect, 100 complete control
Excerpt: as §2, §3

[13] = tested on: giant foxtail (Setaria faberii); experiment: Test A postemergence; conditions: postemergence; for Foxtail, Giant plant response rating: 125 g ai/ha, visual injury rating on 0 to 100 scale (0 no effect, 100 complete control), approx. 10 d; for Plant response rating, Foxtail, Giant: 500 g ai/ha, 0 to 100 scale, 0 no effect, 100 complete control
Excerpt: as §2, §3

[14] = tested on: pigweed (Amaranthus retroflexus); experiment: Test A postemergence; conditions: postemergence; for Pigweed plant response rating: 125 g ai/ha, visual injury rating on 0 to 100 scale (0 no effect, 100 complete control), approx. 10 d; for Plant response rating, Pigweed: 500 g ai/ha, 0 to 100 scale, 0 no effect, 100 complete control
Excerpt: as §2, §3

[15] = tested on: blackgrass (Alopecurus myosuroides); experiment: Test A postemergence
Excerpt: as §2, §3

[16] = tested on: Kochia (Kochia scoparia); experiment: Test A postemergence; conditions: postemergence; for Kochia plant response rating: 125 g ai/ha, visual injury rating on 0 to 100 scale (0 no effect, 100 complete control), approx. 10 d; for Plant response rating, Kochia: 500 g ai/ha, 0 to 100 scale, 0 no effect, 100 complete control
Excerpt: as §2, §3

[17] = tested on: ryegrass, Italian (Italian ryegrass, Lolium multiflorum); experiment: Test A postemergence; conditions: postemergence; for Ryegrass, Italian plant response rating: 125 g ai/ha, visual injury rating on 0 to 100 scale (0 no effect, 100 complete control), approx. 10 d; for Plant response rating, Ryegrass, Italian: 500 g ai/ha, 0 to 100 scale, 0 no effect, 100 complete control
Excerpt: as §2, §3

[18] = tested on: barnyardgrass (Echinochloa crus-galli); experiment: Test A postemergence
Excerpt: as §2, §3

[19] = tested on: wheat (Triticum aestivum); experiment: Test A postemergence; conditions: postemergence; for Wheat plant response rating: 125 g ai/ha, visual injury rating on 0 to 100 scale (0 no effect, 100 complete control), approx. 10 d; for Plant response rating, Wheat: 500 g ai/ha, 0 to 100 scale, 0 no effect, 100 complete control
Excerpt: as §2, §3

[20] = tested on: ragweed (common ragweed, Ambrosia elatior); experiment: Test A postemergence; conditions: postemergence; for Ragweed plant response rating: 125 g ai/ha, visual injury rating on 0 to 100 scale (0 no effect, 100 complete control), approx. 10 d; for Plant response rating, Ragweed: 500 g ai/ha, 0 to 100 scale, 0 no effect, 100 complete control
Excerpt: as §2, §3

[21] = 500 g ai/ha, postemergence, 0 to 100 scale, 0 no effect, 100 complete control
[22] = Postemergence, 125 g ai/ha, visual injury, 0 to 100 scale (0 no effect, 100 complete control), approx. 10 d

Structure (SMILES)	Plant response rating, Foxtail, Giant [5]	Foxtail, Giant plant response rating (0 to 100 scale) [5]	Plant response rating, Pigweed [6]	Pigweed plant response rating (0 to 100 scale) [6]	Plant response rating, Kochia [7]	Kochia plant response rating (0 to 100 scale) [7]	Plant response rating, Ryegrass, Italian [8]	Ryegrass, Italian plant response rating (0 to 100 scale) [8]	Plant response rating, Barnyardgrass [9]	Barnyardgrass plant response rating (0 to 100 scale) [9]	Plant response rating, Ragweed [10]	Galium plant response rating [11]	Plant response rating, Galium [11]	Corn plant response rating [12]	Plant response rating, Corn [12]	Foxtail, Giant plant response rating [13]	Plant response rating, Foxtail, Giant [13]	Pigweed plant response rating [14]	Plant response rating, Pigweed [14]	Plant response rating, Blackgrass [15, 21]	also measured
COc1cccc(C2CNC(=O)C2C(=O)Nc2cccc(F)c2F)c1 (racemic) [Compound 383]	50	70	0	0	0	20	0	20	50	90	0	0	0	0	0	30	50	0	0	0	Plant response rating, Rice ([1]; 250 g ai/ha): 0; Plant response rating, Ducksalad ([2]; 250 g ai/ha): 30; Plant response rating, Sedge, Umbrella ([3]; 250 g ai/ha): 0; Plant response rating, Barnyardgrass ([4]; 250 g ai/ha): 0; Ragweed plant response rating (0 to 100 scale) ([10]; Preemergence, 500 g ai/ha, 0 is no effect, 100 is complete control): 0; Plant response rating, Blackgrass [15, 22]: 0; Kochia plant response rating [16]: 0; Plant response rating, Kochia [16]: 30; Ryegrass, Italian plant response rating [17]: 20; Plant response rating, Ryegrass, Italian [17]: 30; Plant response rating, Barnyardgrass [18, 21]: 90; Plant response rating, Barnyardgrass [18, 22]: 70; Wheat plant response rating [19]: 0; Plant response rating, Wheat [19]: 0; Ragweed plant response rating [20]: 0; Plant response rating, Ragweed [20]: 20
COc1c(F)ccc(NC(=O)C2C(=O)NCC2c2cccc(C(F)(F)F)c2)c1F (racemic) [Compound 386]	80	90	0	0	0	0	30	50	80	80	0	50	60	40	80	70	80	0	10	70	Plant response rating, Rice ([1]; 500 g ai/ha): 15; Plant response rating, Ducksalad ([2]; 500 g ai/ha): 70; Plant response rating, Sedge, Umbrella ([3]; 500 g ai/ha): 0; Plant response rating, Barnyardgrass ([4]; 500 g ai/ha): 60; Plant response rating, Blackgrass [15, 22]: 50; Kochia plant response rating [16]: 0; Plant response rating, Kochia [16]: 0; Ryegrass, Italian plant response rating [17]: 20; Plant response rating, Ryegrass, Italian [17]: 50; Plant response rating, Barnyardgrass [18, 21]: 80; Plant response rating, Barnyardgrass [18, 22]: 70; Wheat plant response rating [19]: 30; Plant response rating, Wheat [19]: 50; Ragweed plant response rating [20]: 0; Plant response rating, Ragweed [20]: 30
